Experiment [1] concerns the target T1, IRE1a (Homo sapiens, UniProt O75460).
T1 construct: purchased SignalChem
The experiment can be described thus: In vitro FRET assay (IRE1a cleavage of XBP1 RNA probe). Type of experiment: biochemical. The settings on record: 2 nM SignalChem IRE1a, tested as Formic Acid Salt (37: HCl Salt). In a few lines: Human

In experiment [2] the test system is IRE1a. The experiment can be described thus: IRE1a Endoribonuclease Nanoluciferase Assay (XBP1 luciferase reporter in 293T cells). The class given is cell-based, human. The settings on record: Homo sapiens, HEK-293T, ER stressor, tested as Formic Acid Salt (37: HCl Salt). In a few lines:
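293T cells transiently transfected with a PGK-Luc2-P2A-XBP1u-Nanoluciferase-Pest reporter, replated after 6 h, then treated next day with ER stressors ± inhibitors. After lysis, firefly luminescence then nanoluciferase luminescence read sequentially (1000 ms integration each).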
For orientation: A reporter such as luciferase makes a cellular process visible.

Structures are written as SMILES.

By IC50 is commonly meant the midpoint of a concentration-inhibition curve. Usually EC50 stands for the concentration that produces a half-maximal response.

T1 sequence (O75460 19-977): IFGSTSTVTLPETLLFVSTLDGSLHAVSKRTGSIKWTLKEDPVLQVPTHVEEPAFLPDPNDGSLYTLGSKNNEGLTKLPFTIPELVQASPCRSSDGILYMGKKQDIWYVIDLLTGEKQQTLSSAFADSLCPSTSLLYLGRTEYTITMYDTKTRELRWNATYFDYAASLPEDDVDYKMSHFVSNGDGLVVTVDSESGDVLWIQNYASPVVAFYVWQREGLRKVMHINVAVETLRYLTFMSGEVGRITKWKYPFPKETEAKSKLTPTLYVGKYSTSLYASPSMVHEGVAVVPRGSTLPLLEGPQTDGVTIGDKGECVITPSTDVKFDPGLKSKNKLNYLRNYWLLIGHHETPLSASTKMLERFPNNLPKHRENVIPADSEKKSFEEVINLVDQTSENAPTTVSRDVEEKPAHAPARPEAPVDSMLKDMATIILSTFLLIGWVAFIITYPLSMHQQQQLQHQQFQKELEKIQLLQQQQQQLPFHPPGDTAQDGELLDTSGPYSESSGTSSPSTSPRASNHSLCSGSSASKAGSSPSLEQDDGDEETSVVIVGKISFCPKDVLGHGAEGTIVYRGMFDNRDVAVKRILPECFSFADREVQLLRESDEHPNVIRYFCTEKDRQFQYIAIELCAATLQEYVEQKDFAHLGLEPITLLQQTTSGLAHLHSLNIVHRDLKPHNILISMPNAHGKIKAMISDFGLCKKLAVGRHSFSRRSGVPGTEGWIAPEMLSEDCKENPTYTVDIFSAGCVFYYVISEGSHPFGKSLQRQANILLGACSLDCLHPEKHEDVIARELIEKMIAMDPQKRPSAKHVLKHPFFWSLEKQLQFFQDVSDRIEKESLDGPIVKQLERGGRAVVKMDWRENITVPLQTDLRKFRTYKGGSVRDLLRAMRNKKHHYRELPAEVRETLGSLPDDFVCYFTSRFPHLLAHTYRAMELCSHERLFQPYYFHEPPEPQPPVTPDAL

As for `CCc1cc(-c2ccc(NS(=O)(=O)c3ccccc3Cl)nc2C)cc2cnc(N[C@H]3CC[C@H](N(C)CC4CCC4)CC3)nc12` [Compound 130, 2-chloro-N-(5-(2-(((1r,4r)-4-((cyclobutylmethyl)(methyl)amino)cyclohexyl)amino)-8-ethylquinazolin-6-yl)-6-methylpyridin-2-yl)benzenesulfonamide], at IRE1a [1], the IC50 was no more than 5 nM. The EC50 in the experiment with IRE1a [2] is no more than 5 nM.

As for `Cc1nc(NS(=O)(=O)c2ccccc2Cl)ccc1-c1cc(C(C)(F)F)c2nc(N[C@H]3CC[C@H](N(C)C)CC3)ncc2c1` [Compound 131], at IRE1a [1], the IC50 is no more than 5 nM. The EC50 in the experiment on IRE1a [2] was no more than 5 nM.

Turning to `CCc1cc(-c2ccc(NS(=O)(=O)c3ccccc3Cl)nc2C)cc2cnc(N[C@H]3CC[C@H](N(C)CCOC)CC3)nc12` [Compound 132, 2-chloro-N-(5-(8-ethyl-2-(((1r,4r)-4-((2-methoxyethyl)(methyl)amino)cyclohexyl)amino)quinazolin-6-yl)-6-methylpyridin-2-yl)benzenesulfonamide], the 50% inhibitory concentration (IC50) at IRE1a [1] is no more than 5 nM. Further, in the experiment on IRE1a [2], the EC50 is no more than 5 nM.

Take `COc1nc(NS(=O)(=O)c2ccccc2Cl)ccc1-c1cc(C)c2nc(N[C@H]3CC[C@H](N(C)C)CC3)ncc2c1` [Compound 133, 2-chloro-N-(5-(2-(((1r,4r)-4-(dimethylamino)cyclohexyl)amino)-8-methylquinazolin-6-yl)-6-methoxypyridin-2-yl)benzenesulfonamide]: the IC50 at IRE1a [1] was no more than 5 nM. Also, the EC50 in the experiment with IRE1a [2] was no more than 5 nM.

As to `COc1nc(NS(=O)(=O)c2ccccc2Cl)ccc1-c1cc(C(F)(F)F)c2nc(N[C@H]3CC[C@H](N(C)C)CC3)ncc2c1` [Compound 135, 2-chloro-N-(5-(2-(((1r,4r)-4-(dimethylamino)cyclohexyl)amino)-8-(trifluoromethyl)quinazolin-6-yl)-6-methoxypyridin-2-yl)benzenesulfonamide], the IC50 at IRE1a [1] is no more than 5 nM. For the same compound, the EC50 in the experiment on IRE1a [2] was no more than 5 nM.

For the compound `COCc1cc(-c2ccc(NS(=O)(=O)c3ccccc3Cl)nc2OC)cc2cnc(N[C@H]3CC[C@H](N(C)C)CC3)nc12` [Compound 137, 2-chloro-N-(5-(2-(((1r,4r)-4-(dimethylamino)cyclohexyl)amino)-8-(methoxymethyl)quinazolin-6-yl)-6-methoxypyridin-2-yl)benzenesulfonamide], the IC50 at IRE1a [1] was no more than 5 nM. In addition, the EC50 in the experiment with IRE1a [2] was no more than 5 nM.

Turning to `CCc1cc(-c2ccc(NS(=O)(=O)c3ccccc3Cl)nc2OC)cc2cnc(N[C@H]3CC[C@@H](N(C)C)CC3)nc12` [Compound 141, 2-chloro-N-(5-(2-(((1s,4s)-4-(dimethylamino)cyclohexyl)amino)-8-ethylquinazolin-6-yl)-6-methoxypyridin-2-yl)benzenesulfonamide], at IRE1a [1], the IC50 was no more than 5 nM. In addition, the EC50 in the experiment with IRE1a [2] was in the range of 100 to 10000 nM.

Take `COc1nc(NS(=O)(=O)c2ccccc2Cl)c(F)cc1-c1cc(C)c2nc(N[C@H]3CC[C@H](N(C)C)CC3)ncc2c1` [Compound 145, 2-chloro-N-(5-(2-(((1r,4r)-4-(dimethylamino)cyclohexyl)amino)-8-methylquinazolin-6-yl)-3-fluoro-6-methoxypyridin-2-yl)benzenesulfonamide]: the IC50 on IRE1a [1] was no more than 5 nM. For the same compound, the EC50 in the experiment with IRE1a [2] is no more than 5 nM.

As to `COc1nc(NS(=O)(=O)c2ccccc2Cl)ccc1-c1cc(F)c2nc(N[C@H]3CC[C@H](N(C)C)CC3)ncc2c1` [Compound 148, 2-chloro-N-(5-(2-(((1r,4r)-4-(dimethylamino)cyclohexyl)amino)-8-fluoroquinazolin-6-yl)-6-methoxypyridin-2-yl)benzenesulfonamide], the IC50 at IRE1a [1] was no more than 5 nM. The EC50 in the experiment with IRE1a [2] is no more than 5 nM.

With `COc1nc(NS(=O)(=O)c2ccccc2Cl)c(F)cc1-c1ccc2nc(N[C@H]3CC[C@H](N(C)C)CC3)ncc2c1` [Compound 149, 2-chloro-N-(5-(2-(((1r,4r)-4-(dimethylamino)cyclohexyl)amino)quinazolin-6-yl)-3-fluoro-6-methoxypyridin-2-yl)benzenesulfonamide], at IRE1a [1], the IC50 is no more than 5 nM. Besides, the EC50 in the experiment with IRE1a [2] fell in the range of 5 to 50 nM.

Consider `CN[C@H]1CC[C@H](Nc2ncc3cc(-c4cc(F)c(NS(=O)(=O)c5ccccc5Cl)nc4OC)ccc3n2)CC1` [Compound 150, 2-chloro-N-(3-fluoro-6-methoxy-5-(2-(((1r,4r)-4-(methylamino)cyclohexyl)amino)quinazolin-6-yl)pyridin-2-yl)benzenesulfonamide], for which the IC50 on IRE1a [1] was no more than 5 nM. Also, the EC50 with IRE1a [2] lay within 5 to 50 nM.

On to `CCc1cc(-c2ccc(NS(=O)(=O)c3cccc(Cl)c3Cl)nc2C)cc2cnc(N[C@H]3CC[C@H](N(C)C)CC3)nc12` [Compound 152, 2,3-dichloro-N-(5-(2-(((1r,4r)-4-(dimethylamino)cyclohexyl)amino)-8-ethylquinazolin-6-yl)-6-methylpyridin-2-yl)benzenesulfonamide], for which the IC50 on IRE1a [1] was no more than 5 nM. For the same compound, the EC50 in the experiment on IRE1a [2] was no more than 5 nM.

For the compound `Cc1nc(NS(=O)(=O)c2ccccc2Cl)c(F)cc1-c1ccc2nc(N[C@H]3CC[C@H](N(C)C)CC3)ncc2c1` [Compound 153, 2-chloro-N-(5-(2-(((1r,4r)-4-(dimethylamino)cyclohexyl)amino)quinazolin-6-yl)-3-fluoro-6-methylpyridin-2-yl)benzenesulfonamide], the IC50 at IRE1a [1] was no more than 5 nM. Also, in the experiment with IRE1a [2], the EC50 was in the range of 5 to 50 nM.

With `CCc1cc(-c2cnc(NS(=O)(=O)c3ccccc3Cl)nc2OC)cc2cnc(N[C@H]3CC[C@H](N(C)C)CC3)nc12` [Compound 154, 2-chloro-N-(5-(2-(((1r,4r)-4-(dimethylamino)cyclohexyl)amino)-8-ethylquinazolin-6-yl)-4-methoxypyrimidin-2-yl)benzenesulfonamide], the half-maximal inhibitory concentration (IC50) on IRE1a [1] is no more than 5 nM. Moreover, the EC50 with IRE1a [2] was no more than 5 nM.

With `COc1nc(NS(=O)(=O)c2ccccc2Cl)c(F)cc1-c1cc(F)c2nc(N[C@H]3CC[C@H](N(C)C)CC3)ncc2c1` [Compound 155, 2-chloro-N-(5-(2-(((1r,4r)-4-(dimethylamino)cyclohexyl)amino)-8-fluoroquinazolin-6-yl)-3-fluoro-6-methoxypyridin-2-yl)benzenesulfonamide], the IC50 on IRE1a [1] was no more than 5 nM. In addition, in the experiment with IRE1a [2], the EC50 was in the range of 50 to 100 nM.

In the case of `CCc1cc(-c2ncc(NS(=O)(=O)c3ccccc3Cl)nc2OC)cc2cnc(N[C@H]3CC[C@H](N(C)C)CC3)nc12` [Compound 157, 2-chloro-N-(5-(2-(((1r,4r)-4-(dimethylamino)cyclohexyl)amino)-8-ethylquinazolin-6-yl)-6-methoxypyrazin-2-yl)benzenesulfonamide], the IC50 at IRE1a [1] is no more than 5 nM. In addition, in the experiment on IRE1a [2], the EC50 is no more than 5 nM.

With `CCc1cc(-c2ccc(NS(=O)(=O)c3cccc(F)c3Cl)nc2C)cc2cnc(N[C@H]3CC[C@H](N(C)C)CC3)nc12` [Compound 158, 2-chloro-N-(5-(2-(((1r,4r)-4-(dimethylamino)cyclohexyl)amino)-8-ethylquinazolin-6-yl)-6-methylpyridin-2-yl)-3-fluorobenzenesulfonamide], at IRE1a [1], the IC50 was no more than 5 nM. For the same compound, the EC50 in the experiment on IRE1a [2] was no more than 5 nM.

Consider `CCc1cc(-c2nnc(NS(=O)(=O)c3ccccc3Cl)cc2OC)cc2cnc(N[C@H]3CC[C@H](N(C)C)CC3)nc12` [Compound 159, 2-chloro-N-(6-(2-(((1r,4r)-4-(dimethylamino)cyclohexyl)amino)-8-ethylquinazolin-6-yl)-5-methoxypyridazin-3-yl)benzenesulfonamide], for which, at IRE1a [1], the IC50 is no more than 5 nM. Besides, the EC50 with IRE1a [2] fell in the range of 5 to 50 nM.

The values above are taken from patent US12071424B2, “IRE1 small molecule inhibitors” (Cornell University, priority 2017, dated 2024).
